The source of these data is patent publication US5607967A, “Treatment of alzheimer's disease with 5-(tetradecyloxy)-2-furan carboxylic acid” (Merck & Co., Inc., priority 1994, dated 1997).

For one series, the system named is acetyl-CoA carboxylase. To be noted: high doses, i.e. 0.15% of diet; cited from earlier work.
Series [1] has as its system GR/NER chimeric receptor. As to the kind of experiment: Activation of GR/NER in CV1 cells (luciferase). As for the experimental part: The ligand dependent transcription assays were performed as described in Example 4, using CV1 cells in place of COS cells. The transfected CV1 cells were treated with dopamine, TOFA, or with a combination of TOFA and dopamine at the indicated concentrations and tested for luciferase activity.
CV1 cells were co-transfected with the MMTV-Luciferase reporter gene (pJA358) and the GR/NER chimeric receptor as described in Example 4. The cells were treated with increasing amount of the dopamine D1 receptor antagonist SCH 23390 with or without 50 μM […] dopamine.

Series [2] concerns Dopamine D1 receptor antagonist (SCH 23390) induced catalepsy. As to the kind of experiment: SCH 23390 induced catalepsy (Bar method). To be noted: for Catalepsy Duration: TOFA 0.4 mg/kg S.C. pretreatment. The class given is in vivo, rat. As for the experimental part:
Rats were pretreated with 0.4 mg/kg TOFA or with carrier (S.C.). Twenty-four hours later, the rats were challenged with 0.5 mg/kg SCH23390, a Dopamine D1 antagonist, and the duration of catalepsy was monitored.
Catalepsy was determined by a modification of the Bar method (Undie and Friedman, 1988). A steel bar, 1.1 cm in diameter and 50 cm long, was suspended at a height of 10 cm above the working surface. Three sides of the bench around the bar were walled off with brown cardboard, and the linings on the bench surface were selected to be of the same color with the cardboard walls. The animal's hind limbs were freely placed on the bench, the fail laid out to the back, and the forelimbs placed over the bar. The length of time a rat stayed up on the bar was noted up to a preset cut-off point of 120 s. The time was counted off upon observing any of the following actions: (1) the animal came off, placing its two forepaws on the bench, (2) the animal climbed onto or over the bar with both hind limbs, (3) the animal initiated locomotion along or around the bar. Subsequently, time readings were translated into scores by awarding a score of 1 for each successfully completed 5 s on the bar. For each observation time, catalepsy scores were averaged for all the animals in a group to give the Mean Score of the group at that observation time. Further, the scores for each animal at all the observation times were added to give the total score for that animal. The mean of this last group of numbers was called the Mean Total Score of the group.
Catalepsy scores were analyzed by computer in accordance with the statistical procedures outlined by Winer, B. J.: Statistical principles in experimental design. McGraw-Hill, New York, pp. 10-428, 1971. Generally, for a given set of comparisons, observations were subjected to an appropriate analysis of variance followed by two-tailed Dunnett or Student's t-tests to detect differences between treatment groups.

Series [3] concerns GR/NER chimeric receptor. As to the kind of experiment: Activation of GR/NER in COS-7 cells (luciferase). To be noted: 1440 min. As for the experimental part:
The ligand dependent transcription assays were performed as described in Example 4. The transfected COS cells were treated with dopamine, TOFA, or with the combination of TOFA and dopamine at the indicated concentrations and tested for luciferase activity.

Where [4] appears, read: TOFA 10 μM with dopamine 100 μM.
Setting [5] is: TOFA 100 μM with dopamine 100 μM.

For `CCCCCCCCCCCCCCOc1ccc(C(=O)O)o1` [TOFA, 5-(tetradecyloxy)-2-furan carboxylic acid], in the series on acetyl-CoA carboxylase, the “Fatty acid synthesis in vivo” value was “inhibit fatty acid synthesis”. Moreover, the “Fold of stimulation GR/NER” value with GR/NER chimeric receptor [1] (setting [4]) amounted to 1.40 ± 0.05 fold; in the series with GR/NER chimeric receptor [1] (setting [5]) it was 1.60 ± 0.07 fold; with GR/NER chimeric receptor [1] (TOFA 100 μM, no dopamine) it was 3.70 ± 0.06 fold; in the series with GR/NER chimeric receptor [3] (setting [4]), 3.24 ± 0.06 fold; in the series with GR/NER chimeric receptor [3] (setting [5]) it was 2.85 ± 0.07 fold; with GR/NER chimeric receptor [3] (TOFA 100 μM, no dopamine), 3.36 ± 0.04 fold. Further, the “Catalepsy Duration” value was determined as 75 ± 17.8 s in series [2] (24 h later 0.5 mg/kg SCH23390) and 0 s in series [2] (no challenge). In addition, the “Increase of duration of SCH 23390-induced catalepsy by TOFA pretreatment” value in series [2] (TOFA 0.4 mg/kg S.C., 24 h before 0.5 mg/kg SCH23390) is given as “at least 25 fold”.
